# Measured values reported in ChEMBL document CHEMBL1149523, “Inhibition of HIV-1 integrase activity by synthetic peptides derived from the HIV-1 HXB2 Pol region of the viral genome” (Bioorg Med Chem Lett, 2006).
# Tests used:
# [1] = target: T1, Human immunodeficiency virus type 1 integrase (Human immunodeficiency virus 1, UniProt Q7ZJM1); assay: Inhibition of wild type HIV1 integrase 3' processing step
# [2] = target: T1, Human immunodeficiency virus type 1 integrase; assay: Inhibition of wild type HIV1 integrase strand transfer step
# [3] = target: Human immunodeficiency virus type 1 integrase (Human immunodeficiency virus 1, UniProt Q7ZJM1, C280S/F185K); assay: Inhibition of soluble HIV1 integrase F185K/C280S mutant strand transfer step
# Chain of Human immunodeficiency virus type 1 integrase (Human immunodeficiency virus 1, UniProt Q7ZJM1, C280S/F185K) (Q7ZJM1 entry or part of it C280S/F185K): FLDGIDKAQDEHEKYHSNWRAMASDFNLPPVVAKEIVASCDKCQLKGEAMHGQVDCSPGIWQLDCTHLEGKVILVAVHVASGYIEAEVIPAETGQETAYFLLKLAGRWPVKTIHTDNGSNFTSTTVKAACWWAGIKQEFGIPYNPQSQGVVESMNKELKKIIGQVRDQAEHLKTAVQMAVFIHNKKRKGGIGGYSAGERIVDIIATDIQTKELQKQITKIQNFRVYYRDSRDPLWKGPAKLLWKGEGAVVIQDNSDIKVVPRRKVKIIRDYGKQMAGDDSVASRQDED
# [4] = target: Human immunodeficiency virus type 1 integrase (Human immunodeficiency virus 1, UniProt Q7ZJM1, C280S/F182K); assay: Inhibition of soluble HIV1 integrase F182K/ C280S mutant 3' processing step
# [5] = target: T2, Human immunodeficiency virus type 1 integrase (Human immunodeficiency virus 1, UniProt Q7ZJM1, C130S); assay: Inhibition of HIV1 integrase C130S mutant strand transfer step
# T2 sequence (Q7ZJM1 entry or part of it C130S): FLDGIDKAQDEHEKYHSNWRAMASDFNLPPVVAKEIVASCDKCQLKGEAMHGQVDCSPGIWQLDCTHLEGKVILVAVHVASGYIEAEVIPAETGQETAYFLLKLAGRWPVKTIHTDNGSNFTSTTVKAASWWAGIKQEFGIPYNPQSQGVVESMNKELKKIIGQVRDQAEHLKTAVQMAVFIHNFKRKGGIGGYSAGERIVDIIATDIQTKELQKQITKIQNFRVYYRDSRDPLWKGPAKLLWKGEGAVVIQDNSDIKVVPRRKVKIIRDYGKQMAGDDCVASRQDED
# [6] = target: T2, Human immunodeficiency virus type 1 integrase; assay: Inhibition of HIV1 integrase C130S mutant 3' processing step
# [7] = target: T3, Human immunodeficiency virus type 1 integrase (Human immunodeficiency virus 1, UniProt Q7ZJM1, C130A); assay: Inhibition of HIV1 integrase C130A mutant strand transfer step
# T3 sequence (Q7ZJM1 entry or part of it C130A): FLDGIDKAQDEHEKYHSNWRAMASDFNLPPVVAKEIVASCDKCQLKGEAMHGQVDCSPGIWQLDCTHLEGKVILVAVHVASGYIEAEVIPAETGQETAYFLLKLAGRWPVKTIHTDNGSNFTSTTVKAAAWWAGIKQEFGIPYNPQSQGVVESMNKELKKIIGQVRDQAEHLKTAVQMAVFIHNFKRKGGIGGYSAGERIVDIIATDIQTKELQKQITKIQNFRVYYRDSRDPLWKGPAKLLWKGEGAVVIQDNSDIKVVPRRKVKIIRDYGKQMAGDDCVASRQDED
# [8] = target: T3, Human immunodeficiency virus type 1 integrase; assay: Inhibition of mutant HIV1 integrase C130A mutant 3' processing step
# T1 sequence (Q7ZJM1 whole entry): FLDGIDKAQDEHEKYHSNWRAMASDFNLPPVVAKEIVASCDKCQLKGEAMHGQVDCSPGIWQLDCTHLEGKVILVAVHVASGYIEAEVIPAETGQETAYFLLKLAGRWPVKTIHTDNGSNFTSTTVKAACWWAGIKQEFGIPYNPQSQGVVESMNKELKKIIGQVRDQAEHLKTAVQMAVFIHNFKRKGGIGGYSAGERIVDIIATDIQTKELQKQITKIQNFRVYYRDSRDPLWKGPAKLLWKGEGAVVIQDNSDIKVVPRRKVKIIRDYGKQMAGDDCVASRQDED
Compound,IC50 [1] [µM],IC50 [2] [µM],IC50 [3] [µM],IC50 [4] [µM],IC50 [5] [µM],IC50 [6] [µM],IC50 [7] [µM],IC50 [8] [µM]
CC[C@H](C)[C@H](NC(=O)[C@H](CO)NC(=O)[C@H](CCC(=O)O)NC(=O)[C@@H](NC(=O)[C@@H](NC(=O)[C@@H](NC(=O)[C@H](CCCCN)NC(=O)[C@H](CCC(N)=O)NC(=O)[C@@H](NC(=O)[C@H](C)NC(=O)[C@H](CCC(=O)O)NC(=O)[C@@H](NC(=O)[C@H](CC(C)C)NC(=O)[C@H](CCC(N)=O)NC(=O)[C@@H](N)CCCCN)[C@@H](C)O)C(C)C)[C@@H](C)CC)[C@@H](C)O)[C@@H](C)O)C(=O)N[C@H](C(=O)N[C@H](C(=O)N[C@@H](Cc1c[nH]c2ccccc12)C(=O)NCC(=O)N[C@@H](CCCCN)C(=O)O)[C@@H](C)CC)C(C)C,7,4,31,51,2,29,10,15
CC[C@H](C)C(NC(=O)[C@H](CCC(=O)O)NC(=O)[C@H](CC(C)C)NC(=O)[C@H](CC(=O)O)NC(=O)[C@H](CO)NC(=O)CNC(=O)[C@@H](NC(=O)[C@H](Cc1ccc(O)cc1)NC(=O)[C@H](CC(C)C)NC(=O)[C@H](CC(=O)O)NC(=O)[C@H](CC(=O)O)NC(=O)[C@H](CCSC)NC(=O)[C@H](Cc1ccc(O)cc1)NC(=O)[C@H](CCC(N)=O)NC(=O)[C@H](Cc1ccc(O)cc1)NC(=O)[C@@H](NC(=O)[C@@H](NC(=O)[C@@H](NC(=O)[C@H](CC(=O)O)NC(=O)[C@@H]1CCCN1)[C@@H](C)CC)C(C)C)[C@@H](C)CC)C(C)C)C(=O)O (stereo not given in full),6,10,23,28,2,41,5,20
CC[C@H](C)[C@H](NC(=O)CNC(=O)[C@H](CC(C)C)NC(=O)[C@H](C)NC(=O)[C@H](Cc1ccc(O)cc1)NC(=O)[C@H](CCC(N)=O)NC(=O)[C@H](CO)NC(=O)[C@H](CC(=O)O)NC(=O)[C@@H](NC(=O)[C@@H](NC(=O)[C@@H](NC(=O)[C@H](CC(N)=O)NC(=O)[C@@H](NC(=O)[C@H](CCC(=O)O)NC(=O)[C@H](CC(C)C)NC(=O)CNC(=O)[C@H](CO)NC(=O)[C@H](CC(=O)O)NC(=O)[C@H](CCC(N)=O)NC(=O)[C@@H](N)CC(C)C)C(C)C)[C@@H](C)CC)C(C)C)[C@@H](C)O)C(=O)O,11,2,36,> 167,4,18,20,> 167
CC[C@H](C)[C@H](NC(=O)[C@H](CC(C)C)NC(=O)[C@H](CCC(N)=O)NC(=O)[C@H](CCC(=O)O)NC(=O)[C@@H](NC(=O)[C@@H](NC(=O)[C@H](CCC(N)=O)NC(=O)[C@H](CC(N)=O)NC(=O)[C@@H](NC(=O)[C@H](CC(C)C)NC(=O)[C@@H](N)CCC(=O)O)C(C)C)[C@@H](C)CC)[C@@H](C)CC)C(=O)N[C@@H](CCCCN)C(=O)N[C@@H](CCCCN)C(=O)N[C@@H](CCC(=O)O)C(=O)N[C@@H](CCCCN)C(=O)N[C@H](C(=O)N[C@@H](Cc1ccc(O)cc1)C(=O)N[C@@H](CC(C)C)C(=O)N[C@@H](C)C(=O)N[C@@H](Cc1c[nH]c2ccccc12)C(=O)O)C(C)C,15,14,83,113,7,136,15,45
CC[C@H](C)[C@H](NC(=O)[C@H](Cc1c[nH]c2ccccc12)NC(=O)[C@@H](NC(=O)[C@H](C)NC(=O)[C@H](CCC(N)=O)NC(=O)[C@H](Cc1c[nH]c2ccccc12)NC(=O)[C@H](Cc1ccc(O)cc1)NC(=O)[C@H](CCC(=O)O)NC(=O)[C@@H](NC(=O)[C@H](Cc1c[nH]c2ccccc12)NC(=O)[C@H](Cc1c[nH]c2ccccc12)NC(=O)[C@@H](NC(=O)[C@H](CCC(=O)O)NC(=O)[C@H](Cc1c[nH]c2ccccc12)NC(=O)[C@@H](NC(=O)[C@@H](N)CCC(=O)O)[C@@H](C)O)[C@@H](C)O)[C@@H](C)O)[C@@H](C)O)C(=O)N1CCC[C@H]1C(=O)N[C@@H](CCC(=O)O)C(=O)N[C@@H](Cc1c[nH]c2ccccc12)C(=O)N[C@@H](CCC(=O)O)C(=O)O,6,2,9,13,27,126,5,25
